Measured values reported in publication PMC11647725, “Discovery of 4-(5-Membered)Heteroarylether-6-methylpicolinamide Negative Allosteric Modulators of Metabotropic Glutamate Receptor Subtype 5” (ACS Medicinal Chemistry Letters, 2024).

Legend:
Transporter, GABA = assay: Lead Profiling Screen, Eurofins Panlabs; type: binding; conditions: rat
hERG potassium channel = hERG potassium channel (Homo sapiens, UniProt Q12809); assay: Lead Profiling Screen, Eurofins Panlabs; type: binding; conditions: hum, read-out: % inh at 10 μM
Chain of hERG potassium channel (Q12809 whole entry): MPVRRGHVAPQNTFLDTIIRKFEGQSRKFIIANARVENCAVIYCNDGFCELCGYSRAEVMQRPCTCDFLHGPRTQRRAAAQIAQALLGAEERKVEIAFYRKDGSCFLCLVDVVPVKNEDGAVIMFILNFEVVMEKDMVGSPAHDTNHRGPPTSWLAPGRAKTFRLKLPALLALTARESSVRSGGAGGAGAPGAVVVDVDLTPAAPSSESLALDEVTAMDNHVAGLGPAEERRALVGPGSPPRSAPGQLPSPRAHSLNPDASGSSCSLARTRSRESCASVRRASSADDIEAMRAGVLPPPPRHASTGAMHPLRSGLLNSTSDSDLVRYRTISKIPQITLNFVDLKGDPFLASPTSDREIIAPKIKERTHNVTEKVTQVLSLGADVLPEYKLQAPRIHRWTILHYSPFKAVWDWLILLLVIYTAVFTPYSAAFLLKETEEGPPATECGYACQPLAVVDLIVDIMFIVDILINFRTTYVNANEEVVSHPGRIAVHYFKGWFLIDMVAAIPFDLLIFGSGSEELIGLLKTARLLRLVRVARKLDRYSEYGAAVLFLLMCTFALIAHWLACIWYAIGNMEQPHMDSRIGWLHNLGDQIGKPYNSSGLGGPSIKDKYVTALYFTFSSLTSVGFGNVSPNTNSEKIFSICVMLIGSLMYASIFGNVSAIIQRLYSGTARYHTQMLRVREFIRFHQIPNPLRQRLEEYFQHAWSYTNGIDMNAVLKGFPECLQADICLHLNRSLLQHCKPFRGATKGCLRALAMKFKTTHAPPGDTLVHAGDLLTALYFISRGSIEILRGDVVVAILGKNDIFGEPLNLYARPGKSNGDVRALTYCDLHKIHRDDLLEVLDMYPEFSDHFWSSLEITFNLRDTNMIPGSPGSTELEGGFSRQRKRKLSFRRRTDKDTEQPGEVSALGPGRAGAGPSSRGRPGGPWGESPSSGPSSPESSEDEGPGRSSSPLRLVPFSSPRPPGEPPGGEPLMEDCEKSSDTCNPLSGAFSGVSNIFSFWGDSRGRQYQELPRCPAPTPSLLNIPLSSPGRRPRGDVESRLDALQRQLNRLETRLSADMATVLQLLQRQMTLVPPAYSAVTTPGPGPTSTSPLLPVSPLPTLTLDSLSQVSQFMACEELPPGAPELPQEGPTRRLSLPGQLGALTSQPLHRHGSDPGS

[1] = Intrinsic clearance in rat liver microsomes; type: in vitro ADME
Description: Mean values for each species were calculated from 3 replicates.
Intrinsic Clearance in Rat and Human Liver Microsomes
The in vitro intrinsic clearance (CL int) was investigated in commercially obtained hepatic microsomes from rat and human donors using the substrate depletion (i.e., loss-of-parent vs. time, or t 1/2 method) approach with analyte detection via liquid chromatography-tandem mass spectrometry (LC-MS/MS). For each species, mean %parent remaining values at each time point were calculated from replicates raw data (analyte:IS peak area ratios) and used to determine in vitro t 1/2 and CLint.
Experiments were carried out using a robot-assisted (TECAN model Evo 200). Compound was incubated (1 µM final concentration) in buffer (100 mM potassium phosphate pH 7.4 with 3 mM MgCl2) containing hepatic microsomes (0.5 mg/mL final concentration) from multiple species, discretely, at 37 °C under constant orbital shaking. After 5 minutes (pre-incubation), reactions were initiated by addition of nicotinamide adenine dinucleotide phosphate (NADPH, 1 mM final concentration). At selected time intervals (0, 3, 7, 15, 25, and 45 minutes) post-addition of NADPH, aliquots (50 µL) were taken and placed into a 96-shallow-well plate containing ice cold acetonitrile (150 µL) with carbamazepine (IS, 50 nM). The plates were then centrifuged (3000 rcf at 4 °C) for 10 minutes. The supernatants were transferred to a new 96-shallow-well daughter plate and diluted (1:1 v/v) with water (Milli-Q filtered). The plates were then sealed in preparation for LC-MS/MS analysis (see below).
Raw LC-MS/MS peak area data generated from the assay samples were used to construct natural log-transformed %parent remaining vs. time plots (using t = 0 minute post-NADPH addition sample data as starting point set to 100%). In vitro compound half-life (t 1/2) values were obtained using the following […]
k is the slope from linear regression analysis of the natural log-transformed data (using means from Where all replicates at each time point). Resulting t 1/2 values were then used to calculate hepatic CLint values according to the following equation and with the use of species-specific scale-up factors for liver weight (grams) per total body weight (kg): […]
CLint = in vitro t1/2 x 0.5 mg microsomes x 1 gram liver x kg body wt aScale-up factors used are 45 (rat) and 20 (human).4
Predicted hepatic clearance (CLhep) was calculated using the following equation: […]
Qh represents hepatic blood flow (mL/min/kg): 21 for human, 70 for rat, and 90 for mouse.
Prepared samples were injected (10 µL each) onto an AB Sciex Triple Quad 4500 mass spectrometer system with an Agilent 1260 Infinity II pump and autosampler. Mass spectrometer conditions are described in Table S1. Quantitation of compounds was performed via AB Sciex Multiquant software using the raw analyte:IS peak area ratios. The typical detection range was 0.5 ng/mL to ≥ 5,000 ng/mL utilizing a quadratic equation regression with 1/x2 weighting.
Correction for dilution of all brain samples (in extraction buffer and subsequently in blank plasma, as previously described) was performed post-quantitation. The corrections for dilution in extraction buffer employed correction factors specific to each brain weight (not shown).

[2] = In vivo dog pharmacokinetics; conditions: Dog (beagle)
[3] = Binding in brain homogenate from rat (equilibrium dialysis); type: in vitro ADME; conditions: rat, brain homogenate, rat brain homogenates, read-out: Rat fu,brain
Description: transferred to the corresponding wells of new daughter plates (96-shallow-well, V bottom) containing water (Milli-Q, 60 µL/well), and the plates were sealed in preparation for LC-MS/MS analysis (see below). fu was calculated as (analyte to IS MS peak area ratio from Trans-buffer side) / (analyte to IS MS peak area ratio from Cis-plasma side). Mean values for each species were calculated from 3 replicates.
Binding in brain homogenate from rat.
Determination of fraction unbound (f u) in brain homogenate from rat was conducted using the same methodology and procedure than described for plasma protein binding assay with the following modifications: 1) a final compound concentration of 1 μM was used, 2) naïve rat brains were homogenized in DPBS (1:3 composition of brain: DPBS, w/w) using a Mini-Bead Beater™ machine in order to obtain […]
The diluted fraction unbound (f u2) in brain was calculated as (analyte to IS MS peak area ratio from Trans-buffer side) / (analyte to IS MS peak area ratio from Cis-brain homogenate side). Undiluted fraction unbound for the brain was calculated using the following equation: […]
Mean values for each species were calculated from 3 replicates. […]

[4] = IV plasma-brain level determination (PBL) in rat; type: in vivo; conditions: male, Sprague-Dawley, brain and plasma, SD rat, 0.2 mg/kg IV
[5] = biological target: Serotonin (5-Hydroxytryptamine) 5-HT2B (Homo sapiens, UniProt P41595); assay: Lead Profiling Screen, Eurofins Panlabs; type: binding; conditions: Serotonin 5-HT2B, hum, read-out: % inh at 10 μM
Chain of Serotonin (5-Hydroxytryptamine) 5-HT2B (P41595 whole entry): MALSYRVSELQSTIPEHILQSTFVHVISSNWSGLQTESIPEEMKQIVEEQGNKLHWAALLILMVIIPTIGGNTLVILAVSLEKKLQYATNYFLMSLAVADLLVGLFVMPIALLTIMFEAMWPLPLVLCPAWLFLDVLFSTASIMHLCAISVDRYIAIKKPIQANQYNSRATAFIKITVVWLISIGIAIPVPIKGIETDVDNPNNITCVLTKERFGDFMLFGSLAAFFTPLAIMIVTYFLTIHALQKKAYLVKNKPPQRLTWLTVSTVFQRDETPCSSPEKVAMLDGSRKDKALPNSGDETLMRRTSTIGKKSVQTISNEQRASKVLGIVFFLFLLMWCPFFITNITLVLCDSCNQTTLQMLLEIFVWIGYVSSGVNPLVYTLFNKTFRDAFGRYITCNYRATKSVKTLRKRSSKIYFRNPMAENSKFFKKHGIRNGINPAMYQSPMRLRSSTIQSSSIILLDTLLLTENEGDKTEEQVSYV

Muscarinic M3 = Muscarinic M3 (Homo sapiens, UniProt P20309); assay: Lead Profiling Screen, Eurofins Panlabs; type: binding; conditions: Muscarinic M3, hum, read-out: % inh at 10 μM
Chain of Muscarinic M3 (P20309 whole entry): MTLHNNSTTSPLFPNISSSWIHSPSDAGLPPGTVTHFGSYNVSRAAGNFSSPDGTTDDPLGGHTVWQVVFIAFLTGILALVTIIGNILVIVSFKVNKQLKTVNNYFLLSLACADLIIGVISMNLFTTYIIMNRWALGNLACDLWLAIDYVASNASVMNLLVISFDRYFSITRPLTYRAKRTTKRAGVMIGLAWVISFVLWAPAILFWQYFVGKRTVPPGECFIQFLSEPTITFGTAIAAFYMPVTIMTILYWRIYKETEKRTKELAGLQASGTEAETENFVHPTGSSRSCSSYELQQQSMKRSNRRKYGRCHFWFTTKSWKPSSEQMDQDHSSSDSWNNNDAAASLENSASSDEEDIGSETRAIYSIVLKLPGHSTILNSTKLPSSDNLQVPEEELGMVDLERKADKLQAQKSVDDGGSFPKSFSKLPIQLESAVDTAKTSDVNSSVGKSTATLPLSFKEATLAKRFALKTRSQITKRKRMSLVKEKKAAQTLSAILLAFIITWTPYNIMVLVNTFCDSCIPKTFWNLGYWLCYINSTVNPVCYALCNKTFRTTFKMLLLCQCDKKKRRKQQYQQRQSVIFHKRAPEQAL

Neuropeptide Y Y2 = Neuropeptide Y Y2 (Homo sapiens, UniProt P49146); assay: Lead Profiling Screen, Eurofins Panlabs; type: binding; conditions: Neuropeptide Y Y2, hum, read-out: % inh at 10 μM
Chain of Neuropeptide Y Y2 (P49146 whole entry): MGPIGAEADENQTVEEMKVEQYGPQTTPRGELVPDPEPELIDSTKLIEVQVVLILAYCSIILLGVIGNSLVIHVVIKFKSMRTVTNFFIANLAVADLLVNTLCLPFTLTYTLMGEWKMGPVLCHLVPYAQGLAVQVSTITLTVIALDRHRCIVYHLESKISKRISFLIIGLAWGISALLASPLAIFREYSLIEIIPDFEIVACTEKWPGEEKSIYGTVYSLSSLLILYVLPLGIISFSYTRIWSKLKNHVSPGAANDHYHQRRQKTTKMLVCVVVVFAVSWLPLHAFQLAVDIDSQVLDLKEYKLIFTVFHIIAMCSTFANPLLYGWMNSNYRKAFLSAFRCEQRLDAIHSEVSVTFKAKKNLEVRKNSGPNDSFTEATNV

[6] = Hepatocyte metabolism study; type: in vitro ADME; conditions: dog hepatocytes, more so than any other species tested
Excerpt: (§1) Nonetheless, as a non-aryl/heterobiaryl acetylene mGlu5 NAM with an encouraging in vivo rodent PK profile, we wished to further assess VU6043653 as a novel chemotype. Therefore, we compared metabolites in multiple species to better understand species differences in clearance and metabolism. […] Consistent with the high plasma clearance observed in dogs, high turnover was observed more so in dog hepatocytes than any other species tested (see the Supporting Information for additional details and results). To further evaluate our novel chemotype, the off-target and safety/toxicity profiles for this compound were further investigated.
Table S3. Tentatively Identified Metabolites of VU6043653 in Rat, Dog, Monkey, and Human Hepatocytes (10 μM incubation for 0 and 4 hours). […]
metabolite observed with rat, dog, monkey, and human hepatocytes was M1. Overall, the major pathways for VU6043653 appear to be oxidation, demethylation, and glucuronidation.
(1 picture or pasted object on this page, not shown here)

Imidazoline I2, Central = assay: Lead Profiling Screen, Eurofins Panlabs; type: binding; conditions: rat
Excerpt: as §1
Table S2. Lead Profiling Screen – Eurofins Panlabs for VU6043653.
Assay Name Species % inh at 10 μM […]
Imidazoline I2, Central rat -1

With Cc1cc(Oc2cnn(C)c2)cc(C(=O)Nc2ccc(F)cn2)n1 [22iA] the “% inh at 10 μM” value (Transporter, GABA) was -1%, the inhibition at 10 µM (hERG potassium channel) was 14% and the CLint scaled at 40 min, 1 µM ([1]; pH 7.4, rat liver microsomes) was 48 mL/min/kg. The “CLhep, rat” value ([1]; predicted hepatic clearance based on microsomal CLint) was 28 mL/min/kg, the CLp ([2]; IV 0.5 mg/kg) was 38 mL/min/kg and the MRT ([2]; IV 0.5 mg/kg) was 1.41 h. For the same compound, the Vss ([2]; IV 0.5 mg/kg) was 3.2 L/kg, the t1/2 ([2]; IV 0.5 mg/kg) was 1.55 h and the “AUC0-∞” value ([2]; PO 3.0 mg/kg) was 264 ng·h/mL. The Cmax ([2]; PO 3.0 mg/kg) was 70.3 ng/mL, the Tmax ([2]; PO 3.0 mg/kg) was 40.2 min and the “%F” value ([2]; PO 3.0 mg/kg, oral bioavailability) was 20%. It also gave a fraction unbound at 6 h, 1 µM [3] of 0.012, a Kp at 0.25 h ([4]; total brain-to-plasma partition ratio) of 1.68 and a Kp uu at 0.25 h ([4]; unbound brain-to-plasma partition ratio) of 0.34. The inhibition at 10 µM [5] was 40%, the inhibition at 10 µM (Muscarinic M3) was -15% and the inhibition at 10 µM (Neuropeptide Y Y2) was -5%. The turnover in hepatocytes [6] was “high turnover” and the “% inh at 10 μM” value (Imidazoline I2, Central) was -1%.
